In general, melting point refers to the temperature of the solid-liquid transition.

Results on eleven molecules are retold here after patent US9345244B2, “Plant growth regulating compounds” (Syngenta Participations AG, priority 2011, dated 2016).

The subject of the first data set is Wheat (Triticum aestivum) seeds of the variety Arina. In words: Wheat assay (plant area and root curliness). The format is in vivo. Particulars: wheat var. Arina seeds in mini-pouches with 5 mL compound solution; twelve days after sowing/application. The procedure: Two bioassays were developed in order to assay the activity of the compounds of the present invention. In the first assay, the activity of the compound was quantified in beans based on its effect on the elongation of the petiole of the second leaf. In the second assay, the compound's effect on the root growth of wheat was determined.
The test compounds were dissolved in small volumes of dimethyl sulfoxide and diluted to the appropriate concentration with water. Wheat (Triticum aestivum) seeds of the variety Arina were sown in mini-pouches (10.5×9.0 cm) containing 5 mL of the appropriate compound solution. The mini pouches were stored at 17° C. for three days to enable the seeds to germinate. Plants were then stored at 5° C. Twelve days after sowing/application, plants were removed from the mini-pouches and scanned. The effect of the compounds was quantified by determining plant (root and shoot) area and curliness of the roots (curliness is an indicator of brassinosteroid-type activity).
As to `COC(=O)CCC(=O)Nc1ccc(C#N)cn1` [Compound A1, methyl 4-[(5-cyano-2-pyridyl)amino]-4-oxo-butanoate], the “curliness of the roots (indicator of brassinosteroid-type activity)” value (“curliness of the roots” for short) was “curly root phenotype”. With `N#Cc1ccc(NC(=O)CCC(=O)O)nc1` [Compound A2, 4-[(5-cyano-2-pyridyl)amino]-4-oxo-butanoic acid], the “curliness of the roots” value is given as “curly root phenotype”. Still for that read-out and setting: the value for `O=C(O)CCC(=O)Nc1ccc(C(F)(F)F)cn1` [Compound A19, 4-oxo-4-[[5-(trifluoromethyl)-2-pyridyl]amino]butanoic acid] was “curly root phenotype”; that for `CCOC(=O)CCC(=O)Nc1ccc(C#N)cn1` [Compound A22, Ethyl 4-[(5-cyano-2-pyridyl)amino]-4-oxo-butanoate] was “curly root phenotype”. Still for that read-out and setting: the value for `CCOc1cc(NC(=O)CCC(=O)OC)ncc1Cl` [Compound A31, Methyl 4-[(5-chloro-4-ethoxy-2-pyridyl)amino]-4-oxo-butanoate] was “curly root phenotype”. Still for that read-out and setting: with `CCOc1cc(NC(=O)CCC(=O)O)ncc1Cl` [Compound A32, 4-[(5-chloro-4-ethoxy-2-pyridyl)amino]-4-oxo-butanoic acid] the entry was “curly root phenotype”. Regarding `CCOc1cc(NC(=O)CCC(=O)OC)ncc1Br` [Compound A38, Methyl 4-[(5-bromo-4-ethoxy-2-pyridyl)amino]-4-oxo-butanoate], the “curliness of the roots” value is “curly root phenotype”. On to `CCOc1cc(NC(=O)CCC(=O)O)ncc1Br` [Compound A39, 4-[(5-bromo-4-ethoxy-2-pyridyl)amino]-4-oxo-butanoic acid], for which the “curliness of the roots” value is recorded as “curly root phenotype”.

System in a further data set: not given
Test: not given
Conditions: not given
For `COC(=O)CCC(=O)Nc1ccc(C#N)cn1` [Compound A1, methyl 4-[(5-cyano-2-pyridyl)amino]-4-oxo-butanoate], the melting point lay in the range of 161 to 164 °C. Turning to `N#Cc1ccc(NC(=O)CCC(=O)O)nc1` [Compound A2, 4-[(5-cyano-2-pyridyl)amino]-4-oxo-butanoic acid], the melting point fell in the range of 220 to 221 °C. `N#Cc1cc(I)cnc1NC(=O)CCC(=O)O` [Compound A4, 4-[(3-cyano-5-iodo-2-pyridyl)amino]-4-oxo-butanoic acid] registered a melting point of 215 to 218 °C.

`COC(=O)CCC(=O)Nc1ccc(-c2nnn[nH]2)cn1` [Compound A65, Methyl 4-oxo-4-[[5-(1H-tetrazol-5-yl)-2-pyridyl]amino]butanoate] came in with a melting point of 246 to 248 °C. Still for that read-out and setting: the value for `COC(=O)C(C)(C)CC(=O)Nc1ccc(C#N)cn1` [Compound B1, Methyl 4-[(5-cyano-2-pyridyl)amino]-2,2-dimethyl-4-oxo-butanoate] was 129 °C.
